From PMC4497601 (Angewandte Chemie (International Ed. in English), 2014)
Entries after “also recorded” stand apart in the source; their conditions may differ. Each block holds one molecule with its values, some of them ahead of it.

Experiments:
Hsp90 ATP binding site = Hsp90 ATP binding site (Homo sapiens, UniProt P07900); assay: LLS screening in competition mode; settings: Δ=2.5 s; for binding to Hsp90 in LLS competition screening of mixtures: 500 μM spy ligand II, 2.5 μM Hsp90, 600 μM of each ligand
Hsp90 [1] = settings: read-out: KD ITC; cited from earlier work
[2] = target: N-terminal ATPase domain of heat shock protein 90 (Hsp90) (Homo sapiens, UniProt P07900); assay: LLS NMR direct titration of ligand against Hsp90; format: binding
Hsp90 [3] = settings: cited from earlier work

SMILES: NCc1ccc(F)c(F)c1 [3,4-difluorobenzylamine]
binding to Hsp90 in LLS competition screening of mixtures (Hsp90 ATP binding site): nonbinding

SMILES: N=C(N)c1ccc(C(F)(F)F)cc1 [4-trifluoromethylbenzamidine]
binding to Hsp90 in LLS competition screening of mixtures (Hsp90 ATP binding site): nonbinding

SMILES: CC(C)c1cc(C(=O)N2Cc3ccc(CN4CCN(C)CC4)cc3C2)c(O)cc1O [AT13387]
LLS signal of spy ligand II on addition of competitor (Hsp90 ATP binding site; 500 μM ligand II, 10 μM Hsp90, 10 μM competitor): almost completely restored; also recorded: partly restored

SMILES: Nc1ncccn1 [Ligand III, 2-aminopyrimidine]
Kd (Hsp90 [1]): > 1000 µM

Further lines, with some results ahead:

Kd [2]: 15 ± 10 µM | RLLS bound ([2]; bound ligand, fitted from direct titration with 10 μM Hsp90): 77 ± 6 s⁻¹ | RLLS free ([2]; free ligand): 731±7 ms^−1
SMILES: Nc1ncnc2c1ncn2[C@@H]1O[C@H](COP(=O)(O)OP(=O)(O)O)[C@@H](O)[C@H]1O [Ligand I, Adenosine diphosphate]
Kd (Hsp90 [1]): 10 µM

binding to Hsp90 in LLS competition screening of mixtures (Hsp90 ATP binding site): weakly binding
SMILES: Cc1cnc(N)c(Br)c1 [Ligand V, 3-bromo-5-methylpyridin-2-ylamine]
binding to Hsp90 identified by fragment screening (Hsp90 [3]): weak ADP-competitive binders

binding to Hsp90 in LLS competition screening of mixtures (Hsp90 ATP binding site): nonbinding
SMILES: N[C@@H](Cc1ccc(O)cc1)C(=O)O [tyrosine]
